Legend:
[1] = molecular target: Neuraminidase (NA) of A/Taiwan/1/2013(H7N9) NA-WT (Influenza A virus, UniProt A0A024E3Q2); format: biochemical; details: read-out: IC50, nM ± SD
[2] = molecular target: Neuraminidase (NA) of A/Washington/01/2007, NA-WT (Influenza A virus, UniProt A7UPN3); format: biochemical; details: read-out: IC50, nM ± SD

Q: Which IC50 [1] does the source give for `CCC(CC)[C@H](NC(C)=O)[C@@H]1[C@H](O)[C@@H](C(=O)O)C[C@H]1N=C(N)N` [Peramivir, peramivir] here?
A: 0.08 ± 0.02 nM

Q: What about the IC50 [2] of the same compound?
A: 0.23 ± 0.03 nM

From PMC6943751 (The Journal of infectious diseases, 2014)
